Read-outs that look alike come from different tables or passages of the source.
Assays:
[1] = tested on: HSJD-RBVS-10 retinoblastoma cells; test: cells; format: cell-based; details: Homo sapiens
Y79 retinoblastoma cells = test: cells; format: cell-based
Y79 cells = test: Viability of Y79 cells by treatment sequence; format: cell-based
Protocol: To address the sequence of the treatments on cell viability and apoptosis markers, topotecan (2 μM) and VCN-01 at 50 MOI (concentration sufficient to achieve viral protein transduction at early time points) was incubated with the sequence “topotecan first” (three days before VCN-01) or “VCN-01 first” (three days before topotecan). The experiments were controlled by adding culture medium instead of the second treatment.

Y79 tumors = format: in vivo, mouse; details: systemic drug after intratumoral VCN-01 3×10E^9 vp/tumor; 5 or 15 days (FIGS. 2A-B)
HSJD-RBT-7 tumors = format: in vivo, mouse; details: systemic drug after intratumoral VCN-01 3×10E^9 vp/tumor; 5 days (FIG. 3)
[2] = tested on: HSJD-NB-005 neuroblastoma; test: Antitumor activity in neuroblastoma PDX HSJD-NB-005; format: in vivo, mouse; details: single treatment (FIG. 24D,F)
Protocol: PDX of neuroblastoma (pediatric solid tumor) were implanted subcutaneously into athymic nude mice. Tumor model was HSJD-NB-005. Upon engraftment (tumor volumes ranging 100-500 mm^3), treatments were started. The activity of topotecan vs. irinotecan in combination with VCN-01 was evaluated. The following groups of mice were included in the study, with an n of 6 tumors per group: • Group 1: no treatment • Group 2: topotecan i.p. at 0.6 mg/kg, Day 1-5 • Group 3: irinotecan i.p. at 10 mg/kg, Day 1-5 • Group 4: VCN-01 i.t at 3E9 vp/tumor, Day 1 • Group 5: VCN-01 i.t at 3E9 vp/tumor, Day 1 (morning)+topotecan i.p. at 0.6 mg/kg, Day 1-5 • Group 6: VCN-01 i.t at 3E9 vp/tumor, Day 1 (morning)+irinotecan i.p. at 10 mg/kg, Day 1-5
Antitumor activity in extracranial pediatric solid tumors. 5-10 mm^3 fresh fragments of Ewing sarcoma or neuroblastoma PDX were implanted in both flanks of mice. Upon s.c. engraftment (tumor volume 150-200 mm^3), mice received topotecan (0.6 mg/kg, i.p., days 1-5), VCN-01 (3×10^9 vp in 20 µL vehicle, intratumoral, day 1), or the combination. In two additional groups, an alternative topoisomerase 1 inhibitor, irinotecan (10 mg/kg, i.p., on days 1-5) we used in place of topotecan. Upon completion of treatments, tumor volumes were followed until endpoint (1500 mm^3), or until day 80.

CDKN1A = format: cell-based, human; details: RBT-7 cells pre-infected with VCN-01; topotecan 2 μM (FIG. 17F)
Protocol: (§1) To assess the expression of genes involved in the cell cycle, 6-well culture plates containing 2×10^6 retinoblastoma cells were used. VCN-01 was added at 50 MOI for 48 h, followed by the addition of topotecan (2 μM), […] (12.5 μM) or culture medium. The cell pellets were collected 24 h later. The samples were plated in the TaqMan® Array of Human Cyclins & Cell Cycle Regulation (Thermo Fisher Scientific). This array contains 92 assays of cell cycle-associated genes and assays of GAPDH, 18S, HPRT1 and GUSB as endogenous control genes. the threshold cycle (Ct) value ≥35 was established as absence of expression. The mean expression value of the controls was used to normalize gene expression values. The thresholds for upregulation and downregulation were 2^−ΔΔCt≥2.0 and 2^−ΔΔct≤0.5, respectively (Livak and Schmittgen, “Analysis of relative gene expression data using real-time quantitative PCR and the 2 (−Delta Delta C(T)) Method,” Methods 2001; 25(4):402-8).
(§2) SYBR primers were CDKN1A (Forward 5′-GGACAGGAGAGGAAGACCATGT-3′ (SEQ ID NO: 15), Reverse 5′-TGGAGTGGTAGAATTCTGTCATGC-3′ (SEQ ID NO: 16) and CDK6 (Forward 5′-CCAGGCAGGCTTTTCATTCA-3′ (SEQ ID NO: 17), Reverse 5′-AGGTCCTGGAAGTATGGGTG-3′ (SEQ ID NO: 18).

CDK6 = test: Cell cycle gene expression array, CDK6; format: cell-based, human; details: RBT-7 cells pre-infected with VCN-01; topotecan 2 μM (FIG. 17F)
Protocol: as §1, §2

[3] = tested on: recombinant hyaluronidase PH20 (SPAM1 gene); test: mRNA expression of recombinant hyaluronidase PH20 (SPAM1) in s.c. retinoblastomas; format: in vivo, mouse; details: 5 days, compared to […] (FIG. 18H)
Protocol: To quantify the recombinant PH20 hyaluronidase gene (SPAM1) in cultures and mouse tissues, the SYBR primer: Forward 5′-TACACACTCCTTGCTCCTGG-3′ (SEQ ID NO: 19), Reverse: 5′-CTTAGTCTCACAGAGGCCAC-3′ (SEQ ID NO: 20) (Bazan-Peregrino et al., “VCN-01 disrupts pancreatic cancer stroma and exerts antitumor effects,” Journal for ImmunoTherapy of Cancer 2021; 9(11):e003254) was used.
To establish s.c. tumors, 10^6 retinoblastoma cells suspended in 25 µL matrigel (Corning, Glendale, AZ, USA) were injected in athymic nude mice. Upon xenograft engraftment (tumor volumes ranging 100-200 mm^3), treatments were started. Mice received VCN-01 (3×10^9 vp in 20 µL vehicle, single intratumoral injection at day 1), alone or combined with one cycle of topotecan (0.6 mg/kg, intraperitoneal -i.p.-, daily at days 1-5), […] (40 mg/kg, i.p, one single dose at day 1), or hydroxyurea (200 mg/kg, i.p., daily at days 1-5). A group of mice received one intratumoral injection of the vehicle of VCN-01 (20 mM pH 8.0 tris buffer, 25 mM NaCl and 2.5% glycerol). Mice were sacrificed at 5 and 15 days after VCN-01 inoculation, the tumors were dissected and tumor homogenates were prepared by adding 10 μL of water per mg of tissue and homogenizing with a Bullet Blender turbine Storm 24 (Quasar instruments, Colorado Springs, CO, USA). In tumor homogenates, genome copies of VCN-01 were quantified. […]

[4] = read-out: IC50, Topotecan single agent
[5] = read-out: IC50, Topotecan with VCN-01 (10 MOI)

CC[C@@]1(O)C(=O)OCc2c1cc1n(c2=O)Cc2cc3c(CN(C)C)c(O)ccc3nc2-1 [Topotecan, topotecan]
IC50 [1, 4]: 29.6 nM | IC50 [1, 5]: 126 nM | IC50 (Y79 retinoblastoma cells; [4]): 30.3 nM | IC50 (Y79 retinoblastoma cells; [5]): 893 nM | antiproliferative activity, topotecan first (Y79 cells; cells pre-exposed to topotecan before VCN-01 infection (FIG. 13D)): sensitive to the antiproliferative activity of the drug | antiproliferative activity, VCN-01 first (Y79 cells; previous VCN-01 infection (FIG. 13D)): partially abolished the activity of the drug | VCN-01 genome content in tumors (Y79 tumors): increases VCN-01 genome content | VCN-01 genome content in tumors (HSJD-RBT-7 tumors): increases VCN-01 genome content | response of xenograft to single treatment [2]: highly resistant | increase in expression of CDKN1A (CDKN1A): 10 fold | decrease in expression of CDK6 (CDK6): 15 fold | expression of recombinant hyaluronidase [3]: higher expression of recombinant hyaluronidase

From patent US20260335388A1, “COMBINATION THERAPIES WITH ONCOLYTIC ADENOVIRUS AND TOPOISOMERASE I INHIBITORS OR PRODRUGS THEREOF” (priority 2022, published 2026)
